# Measurements reported in US20260294884A1 (Insilico Medicine IP Limited, priority 2023, published 2026).
# “And” between values parts separate entries of the source, which are not always exact repeats. Identical values can stand only once. Like-named read-outs stand apart in the source and are kept apart here.
# Key:
# KAT6A = biological target: T1, KAT6A (Homo sapiens, UniProt Q92794); assay: KAT6A biochemical assay (radiometric [3H]-acetyl CoA, biotinylated H4 (1-30) peptide); details: 60 min reaction, room temperature
# T1 construct: purchased Active Motif
# T1 sequence (Q92794 whole entry): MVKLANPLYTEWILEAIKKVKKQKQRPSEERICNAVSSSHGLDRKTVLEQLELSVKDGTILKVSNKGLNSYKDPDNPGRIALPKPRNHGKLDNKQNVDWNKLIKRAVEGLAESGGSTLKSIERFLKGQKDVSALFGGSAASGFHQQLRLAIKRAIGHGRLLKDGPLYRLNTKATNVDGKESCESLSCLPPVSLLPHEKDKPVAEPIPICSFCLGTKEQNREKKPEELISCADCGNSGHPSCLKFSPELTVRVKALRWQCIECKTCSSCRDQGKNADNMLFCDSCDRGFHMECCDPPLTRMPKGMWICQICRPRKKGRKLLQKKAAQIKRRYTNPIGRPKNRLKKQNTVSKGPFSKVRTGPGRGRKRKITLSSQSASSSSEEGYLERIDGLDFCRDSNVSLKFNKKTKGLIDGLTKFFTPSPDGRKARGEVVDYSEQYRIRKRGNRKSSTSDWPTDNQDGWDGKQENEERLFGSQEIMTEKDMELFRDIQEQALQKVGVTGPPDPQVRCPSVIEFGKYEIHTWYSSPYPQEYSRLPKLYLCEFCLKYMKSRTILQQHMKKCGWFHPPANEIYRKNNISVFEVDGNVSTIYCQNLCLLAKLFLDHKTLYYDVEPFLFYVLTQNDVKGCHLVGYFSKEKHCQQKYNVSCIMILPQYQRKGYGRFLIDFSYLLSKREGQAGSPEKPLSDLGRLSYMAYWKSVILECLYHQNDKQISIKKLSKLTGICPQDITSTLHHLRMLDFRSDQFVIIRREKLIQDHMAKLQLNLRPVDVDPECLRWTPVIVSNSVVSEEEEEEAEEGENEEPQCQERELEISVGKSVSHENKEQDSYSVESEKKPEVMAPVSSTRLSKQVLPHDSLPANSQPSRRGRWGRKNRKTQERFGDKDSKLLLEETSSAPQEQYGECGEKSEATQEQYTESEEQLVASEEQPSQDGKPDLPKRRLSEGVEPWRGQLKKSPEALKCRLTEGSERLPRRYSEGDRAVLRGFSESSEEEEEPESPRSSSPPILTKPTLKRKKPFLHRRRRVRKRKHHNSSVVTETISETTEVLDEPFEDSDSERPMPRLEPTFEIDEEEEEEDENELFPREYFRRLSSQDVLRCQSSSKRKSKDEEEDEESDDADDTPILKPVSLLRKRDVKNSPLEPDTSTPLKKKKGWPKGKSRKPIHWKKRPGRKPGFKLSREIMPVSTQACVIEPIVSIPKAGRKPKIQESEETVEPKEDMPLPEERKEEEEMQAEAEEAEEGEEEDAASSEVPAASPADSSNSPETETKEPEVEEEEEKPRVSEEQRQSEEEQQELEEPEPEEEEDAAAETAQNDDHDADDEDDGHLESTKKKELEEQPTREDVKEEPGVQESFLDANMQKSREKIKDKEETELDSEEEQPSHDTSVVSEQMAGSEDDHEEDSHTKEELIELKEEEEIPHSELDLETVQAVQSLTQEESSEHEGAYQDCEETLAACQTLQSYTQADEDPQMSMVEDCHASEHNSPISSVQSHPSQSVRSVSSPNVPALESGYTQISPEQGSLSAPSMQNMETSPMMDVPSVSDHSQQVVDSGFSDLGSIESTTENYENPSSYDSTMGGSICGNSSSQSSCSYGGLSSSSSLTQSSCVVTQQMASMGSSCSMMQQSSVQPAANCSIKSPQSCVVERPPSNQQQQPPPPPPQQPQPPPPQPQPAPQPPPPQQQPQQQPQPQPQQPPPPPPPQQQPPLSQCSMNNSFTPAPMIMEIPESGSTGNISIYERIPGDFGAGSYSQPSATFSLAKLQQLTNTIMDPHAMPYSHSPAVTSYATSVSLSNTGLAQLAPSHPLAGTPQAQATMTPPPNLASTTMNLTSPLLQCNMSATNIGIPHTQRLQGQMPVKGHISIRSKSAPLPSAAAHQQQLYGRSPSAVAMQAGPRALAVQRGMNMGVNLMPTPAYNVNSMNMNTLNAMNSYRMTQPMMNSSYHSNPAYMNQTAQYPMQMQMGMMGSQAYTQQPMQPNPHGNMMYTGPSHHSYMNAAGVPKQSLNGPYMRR
# Description: Inhibition of KAT6A enzymatic activity by test compounds was determined using a radiometric 384-well format assay. A 10-point serial dilution of the test compounds were conducted in DMSO and then a volume of 200 nL was transferred into 384-well assay plate by Echo (Labcyte). 10 μL of 2×enzyme solution (5 nM KAT6A (Active Motif) in assay buffer (50 mM Tris —HCl pH 8.0, 50 mM KCl, 0.1 mM EDTA, 5% glycerol, 1 mM DTT)) was dispensed into assay plate except for low control wells, in which 10 μL of assay buffer was transferred. The plate was incubated at room temperature for 15 min before addition of 10 μL of 2×[^3H]-acetyl coenzyme A (Ac-COA) and substrate peptide mix solution (500 nM (KAT6A) [^3H]-Ac-COA (PerkinElmer) and 800 nM (KAT6A) biotinylated H4 (1-30) peptide (GL Biochem) in assay buffer) to each well to start reaction. The plate was incubated at room temperature for 60 min (KAT6A), and then the reaction was stopped by adding 10 μL of stop solution (cold Ac-COA (Cayman) in 1×assay buffer). […] The plate was read on Microbeta and the inhibition percentage of each compound treated well was calculated based on the equation inh %=(Max-sample)/(Max-Min)*100 where Max is signal from high control wells with enzyme, and Min is signal from low control wells with assay buffer only. […]
# Caco-2 cells = assay: Permeability, Caco-2 assay; format: in vitro ADME; details: for Mean Papp A to B: Caco-2, pH 7.40, 2 hours, 37 °C
# Description: Permeability of test compounds was determined in Caco-2 Assay. Caco-2 cells purchased from ATCC were seeded onto […] membranes (PET) in 96-well Corning Insert plates at 1×10^5 cells/cm^2, and refreshed medium every 4~5 days until to the 21st to 28th day for confluent cell monolayer formation. The transport buffer in the study was HBSS with 10.0 mM HEPES at pH 7.40±0.05. Test compound was tested at […] bi-directionally in duplicate. Digoxin was tested at 10.0 μM bi-directionally in duplicate, while nadolol and metoprolol were tested at 2.00 μM in A to B direction in duplicate. Final DMSO concentration was adjusted to less than 1%. The plate was incubated for 2 hours in CO2 incubator at 37±1° C., with 5% CO2 at saturated humidity without shaking. And all samples after mixed with acetonitrile containing internal standard were centrifuged at 3200×g for 10 min. For nadolol and metoprolol, 200 μL supernatant solution was diluted with 600 μL ultra-pure water for LC-MS/MS analysis. For digoxin and test compounds, 200 μL supernatant solution was diluted with 200 μL ultra-pure water for LC-MS/MS analysis. Concentrations of test and control compounds in starting solution, donor solution, and receiver solution were quantified by LC-MS/MS methodologies, using peak area ratio of analyte/internal standard. After transport assay, lucifer yellow rejection assay was applied to determine the Caco-2 cell monolayer integrity.
# [1] = Kinetic solubility in 50 mM phosphate buffer (pH 7.4); format: physicochemical; details: versus compound 47
# Description: 10 μL of 10 mM in DMSO of test and control compounds was added into lower chambers of whatman miniuniprep vials, respectively. 490 μL of 50 mM PB (pH 7.4) was added into lower chambers of the whatman miniuniprep vials, respectively. The solubility samples were vortexted for at least 2 minutes. The miniuniprep vials were shaken on a shaker for 24 hours at room temperature at the speed of 800 rpm and then centrifuged for 20 minutes (eg. 4000 rpm). The miniunipreps were compressed to prepare the filtrates for injection into HPLC system to calculate the concentration with standard curve.
# [2] = test system: ER+/KAT6a^high ZR-75-1 breast cancer cell line; assay: In vitro cytotoxicity in ER+/KAT6a^high ZR-75-1 breast cancer cell line (CTG assay, 14 days); format: cell-based, Human
# Description: Single agent experiments (n=3 per each compound) were performed to obtain the IC10, IC25, IC50 and IC75 values for each drug to be used hereafter in the combo treatment.
# The cytotoxicity was evaluated by CTG assay upon 14 days of treatment and stimulation with 1 nM E2. Statistical analysis was performed by 2 way ANOVA Tukey's multiple comparison test (* 0.01<p<0.05).
# Human ER+/KAT6A^high breast cancer cell line ZR-75-1 (ATCC, Virginia, US) was cultured in RPMI 1640 medium (Gibco, Life Technologies, Carlsbad, CA, USA) supplemented with 10% fetal bovine serum (FBS)(Sigma, Saint Louis, CA, USA). All cells were incubated at 37° C., 5% CO2, 80-95% relative humidity.
# Stock solutions were added at appropriate concentration in culture medium before the addition to cells.
# For the cytotoxicity assay, cells were previously starved 48 h in RPMI 1640 no phenol red supplemented with 8% charcoal stripped FBS, and then seeded at appropriate density (2000 cells/well) in starvation media the day before starting the treatment. […] Concentration range was previously identified in single agent cytotoxic assay for the same time points in order to include in the combination experiment IC10, IC25, IC50 and IC75 values for each drug. After 14 days of treatment, CellTiter-Glo® 2.0 Cell Viability Assay (CTG)(Promega, Madison, WI, USA) was added to assess cell viability. Luminescence was measured 10 min later using Tecan Infinite M200 (Tecan Trading AG, Switzerland).
# [3] = Body weight change in PDX study in NCG mice; format: in vivo; details: P.O QD × 27; all mice
# Source text: (§1) Mice were assigned into groups using randomized block design based on their tumor volumes. The test article administration and the animal numbers in each study group are shown in the following experimental design table 5, the PDX model information are shown in the table 6.
# (§2) For routine monitoring, all study animals were monitored for not only tumor growth but also behavior such as mobility, food, and water consumption (by cage side checking only), body weight (BW), eye/hair matting and any other abnormal effect. Any mortality and/or abnormal clinical signs were recorded.
# Body weights of all animals were measured twice a week throughout the study. Body weight change, expressed in %, is calculated using the following formula: BWL (%)=(BWi−BW0)/BW0×100, BWi is the body weight, BW0 is the bodyweight on the first day of treatment.
# The statistical software GraphPad Prism was used to analyze the difference in tumor volume and body weight between the treatment group and the vehicle control group. All the data is described as Mean±SEM, and one-way ANOVA analysis of variance was performed.
# [4] = test system: LD1-0009-362391 PDX model; set-up: species or system NCG Mice; details: mouse, in vivo
# Description: About 50-90 mg tumor pieces were implanted subcutaneously on the right flank of each mouse. The treatments were started when the mean tumor size reaches approximately 150 (100-300) mm^3. The tumor size was measured in two dimensions using a caliper, and the volume was expressed in mm^3 using the formula: V=0.5 a×b^2 where a and b are the long and short diameters of the tumor, respectively.
# as §1
# The PDX model is derived from a patient with invasive breast carcinoma, who received and progressed on multiple prior lines of treatment including docetaxel, epirubicin, cyclophosphamide, gemcitabine, lobaplatin, tamoxifen, nab-paclitaxel, cisplatin, capecitabine, palbociclib and letrozole.
# as §2
# The measurement of tumor size was conducted twice a week. The tumor size was measured in two dimensions using a caliper, and the volume will be expressed in mm^3 using the formula: V=0.5a×b^2 where a and b are the long and short diameters of the tumor, respectively. The tumor sizes are used for the calculations of T/C values. The T/C value (in percent) is an indication of antitumor efficacy, T/C=RTV of treated group/RTV of Control group, RTV=Vt/V0, Vt is the mean volume after treatment on a given day, V0 is the mean tumor volume at the beginning of administration. Meanwhile the tumor volume is used for calculation of TGI of each group according to the following formula: When Tti−Tt0 >0, TGI (%)=[1−(Tti−Tt0)/(Vci−Vc0)]×100; when Tti−Tt0<0, TGI (%)=[1−(Tti−Tt0)/Tt0]×100. […]
# [5] = single agent, 1 nM E2, read-out: IC50
compound,measurement,setting,value
"COc1ccccc1S(=O)(=O)Nc1noc2cc(Oc3ccccn3)cc(OC(F)F)c12 [Compound 27, N-(4-(difluoromethoxy)-6-(pyridin-2-yloxy)benzo[d]isoxazol-3-yl)-2-methoxybenzenesulfonamide]",IC50,KAT6A,100 to 1000 nM
"COc1cccc(OC)c1S(=O)(=O)Nc1noc2cc(Oc3cccnn3)cc(OC(F)F)c12 [Compound 29, N-(4-(difluoromethoxy)-6-(pyridazin-3-yloxy)benzo[d]isoxazol-3-yl)-2,6-dimethoxybenzenesulfonamide]",IC50,KAT6A,100 to 1000 nM
"COc1cccc(OC)c1S(=O)(=O)Nc1noc2cc(Oc3nccs3)c3c(c12)OCCC3 [Compound 35, 2,6-dimethoxy-N-(5-(thiazol-2-yloxy)-3,4-dihydro-2H-chromeno[8,7-d]isoxazol-9-yl)benzenesulfonamide]",Mean Papp A to B,Caco-2 cells,8.59 10^-6 cm/s
same,"permeability, comparison with corresponding compound having X as carbon",Caco-2 cells; versus compound 47,improved permeability
same,"kinetic solubility, comparison with otherwise identical compound having X as carbon",[1],improved kinetic solubility
"COc1cc(C)nc(OC)c1S(=O)(=O)Nc1noc2cc(Oc3nccs3)cc(OC)c12 [Compound 57, 2,4-dimethoxy-N-(4-methoxy-6-(thiazol-2-yloxy)benzo[d]isoxazol-3-yl)-6-methylpyridine-3-sulfonamide]",Mean Papp A to B,Caco-2 cells,3.38 10^-6 cm/s
same,IC50,"[2]; combination experiments, compound alone, 1 nM E2 (FIG. 3B), read-out: IC50 of dose-response curve, used alone (combination experiments)",3.78 nM
same,IC10,"[2]; single agent, 1 nM E2",0.3 nM
same,IC25,"[2]; single agent, 1 nM E2",1.2 nM
same,IC75,"[2]; single agent, 1 nM E2",15 nM
same,IC50,[2]; [5],4 nM
same,IC50,"[2]; with elacestrant (IC25, 56 nM), 1 nM E2 (FIG. 3B), read-out: IC50 of dose-response curve, in combination with elacestrant",0.8 nM
same,body weight,[3],maintained the body weight well
same,TGI,[4],67.7% and 83.8%
same,anti-tumor activity,[4],potent and dose-dependent anti-tumor activity
same,mean endpoint TV (tumor volume),[4],239 mm^3 and 189 mm^3
"COc1cccc(OC)c1S(=O)(=O)Nc1noc2cc(Oc3nccs3)c3c(c12)OCCCC3 [Compound 62, 2,6-dimethoxy-N-(6-(thiazol-2-yloxy)-2,3,4,5,9,10-hexahydrooxepino [3′,2′: 5,6]benzo[1,2-d]isoxazol-10-yl)benzenesulfonamide]",Mean Papp A to B,Caco-2 cells,10.6 10^-6 cm/s
COc1ccccc1S(=O)(=O)Nc1noc2cc(Oc3nccs3)c3c(c12)OCCCC3 [Compound 63],Mean Papp A to B,Caco-2 cells,6.48 10^-6 cm/s
COc1cc(C)nc(OC)c1S(=O)(=O)Nc1noc2cc(Oc3nccs3)c3c(c12)OCCCC3 [Compound 64],Mean Papp A to B,Caco-2 cells,9.00 10^-6 cm/s
COc1ccccc1S(=O)(=O)Nc1noc2cc(Cn3cccn3)cc(OC)c12 [Compound 70],body weight,[3],maintained the body weight well
"CCNCCc1ccc(CN(CC)c2cc(OC)ccc2[C@@H]2CCc3cc(O)ccc3C2)cc1 [elacestrant, reference compound]",IC50,"[2]; elacestrant single agent, 1 nM E2, read-out: IC50 (cytotoxic action)",260 nM
same,IC25,"[2]; elacestrant, 1 nM E2",56 nM
same,IC10,"[2]; single agent, 1 nM E2",10 nM
same,IC25,"[2]; single agent, 1 nM E2",56 nM
same,IC75,"[2]; single agent, 1 nM E2, non clinically relevant dose",1430 nM
same,IC50,[2]; [5],260 nM
